Assay results taken from ChEMBL document CHEMBL1201862, “PubChem BioAssay data set” (2004).
The source made the active and inactive calls.

Legend:
[1] = inhibitors of intracellular T. cruzi replication, confirmation, NIH3T3 host cells, beta-gal luminescence (AID 2044); format: functional, cell-based;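 also: intracellular parasites grown in NIH/3T3 mouse fibroblasts as host cells; luminescent beta-galactosidase reporter signal from transgenic T. cruzi replicating inside host cells; inhibitors lower the luminescence signal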
[2] = cytotoxicity toward NIH3T3 fibroblasts, dose response, counter-screen, cell-based, ATP luminescence, mouse fibroblasts (AID 2010); format: functional;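 also: cells exposed to compound for about 90 hours before reading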
[3] = target: DNA dC->dU-editing enzyme APOBEC-3A (Homo sapiens, UniProt P31941); assay: APOBEC3A DNA deaminase inhibitors, dose response, biochemical (AID 504722); format: functional
[4] = target: DNA dC->dU-editing enzyme APOBEC-3G (Homo sapiens, UniProt Q9HC16); assay: Dose Response confirmation of small molecule APOBEC3G DNA Deaminase Inhibitors via a fluorescence-based single-stranded DNA deaminase assay. [Related pubchem assays (depositor defined):AID493012, AID493028]; format: functional
[5] = M. tuberculosis H37Rv growth inhibitors, H37Rv strain (AID 1626); format: functional
Aminopeptidase N = target: T1, Aminopeptidase N (Plasmodium falciparum FcB1/Columbia, UniProt O96935); assay: P. falciparum M1AAP inhibitors, biochemical, fluorogenic H-Leu-NHMec substrate, 1536-well (AID 1445); design: species or system Plasmodium falciparum 3D7, 3D7
T1 sequence (O96935 whole entry): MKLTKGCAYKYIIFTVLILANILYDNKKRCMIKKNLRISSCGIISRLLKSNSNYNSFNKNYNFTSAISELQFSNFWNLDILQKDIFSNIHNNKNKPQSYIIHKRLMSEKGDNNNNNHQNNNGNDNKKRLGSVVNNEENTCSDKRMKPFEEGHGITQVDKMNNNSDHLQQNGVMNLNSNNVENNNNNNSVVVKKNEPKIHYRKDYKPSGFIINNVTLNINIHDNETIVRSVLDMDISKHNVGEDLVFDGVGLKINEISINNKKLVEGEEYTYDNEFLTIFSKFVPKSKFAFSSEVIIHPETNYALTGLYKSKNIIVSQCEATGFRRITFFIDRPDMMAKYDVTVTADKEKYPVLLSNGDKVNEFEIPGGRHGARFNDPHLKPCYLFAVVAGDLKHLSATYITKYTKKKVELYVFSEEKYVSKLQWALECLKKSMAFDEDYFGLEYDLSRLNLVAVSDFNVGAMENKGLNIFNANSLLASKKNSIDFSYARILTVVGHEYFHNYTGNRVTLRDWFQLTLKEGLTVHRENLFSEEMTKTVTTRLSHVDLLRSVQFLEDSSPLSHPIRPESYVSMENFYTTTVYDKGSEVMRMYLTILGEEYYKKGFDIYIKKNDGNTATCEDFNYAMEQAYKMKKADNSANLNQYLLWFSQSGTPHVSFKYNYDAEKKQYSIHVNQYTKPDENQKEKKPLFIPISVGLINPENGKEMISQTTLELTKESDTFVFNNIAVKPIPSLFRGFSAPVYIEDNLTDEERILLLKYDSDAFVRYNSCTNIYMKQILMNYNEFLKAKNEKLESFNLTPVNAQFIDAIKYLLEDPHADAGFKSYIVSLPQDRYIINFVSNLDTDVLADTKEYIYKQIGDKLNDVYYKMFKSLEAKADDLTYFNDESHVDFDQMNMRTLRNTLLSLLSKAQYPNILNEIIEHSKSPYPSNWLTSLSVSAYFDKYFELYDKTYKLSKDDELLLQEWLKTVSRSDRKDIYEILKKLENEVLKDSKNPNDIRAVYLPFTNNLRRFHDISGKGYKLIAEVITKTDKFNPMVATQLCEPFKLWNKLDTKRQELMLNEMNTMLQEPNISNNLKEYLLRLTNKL

[6] = target: G-protein coupled receptor 55 (Homo sapiens, UniProt Q9Y2T6); assay: GPR55 agonists via beta-arrestin recruitment, primary screen, imaging, U2OS cells, beta-arrestin-GFP redistribution (AID 1961); format: functional
SUMO-activating enzyme [7] = target: T2, SUMO-activating enzyme (Homo sapiens, UniProt Q9UBT2); assay: SUMOylation inhibitor hit validation, confirmation, SUMOylation inhibitor project, biochemical, AlphaScreen (AID 2018); format: functional
SUMO-activating enzyme [8] = target: T2, SUMO-activating enzyme; assay: inhibitors of in vitro SUMOylation cascade, primary screen, biochemical, HTRF, uHTS (AID 2006); format: protein-complex assay
[9] = test system: Streptococcus sp. 'group A'; assay: growth inhibition of control SK(-) GAS strain, dose response, counter-screen for streptokinase expression inhibitor project, luminescence, kanamycin, BacTiterGlo, confirmation (AID 1900); format: functional, organism-based
Streptokinase A = target: T3, Streptokinase A (Streptococcus pyogenes serotype M1, UniProt P10520); assay: S. pyogenes streptokinase expression inhibitors, potency, dose response, plasminogen activation absorbance, OD405 (AID 1914); format: functional, Streptococcus pyogenes M1 GAS;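 also: secreted streptokinase activity via plasminogen activation per viability signal from cell pellet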
T3 sequence (P10520 whole entry): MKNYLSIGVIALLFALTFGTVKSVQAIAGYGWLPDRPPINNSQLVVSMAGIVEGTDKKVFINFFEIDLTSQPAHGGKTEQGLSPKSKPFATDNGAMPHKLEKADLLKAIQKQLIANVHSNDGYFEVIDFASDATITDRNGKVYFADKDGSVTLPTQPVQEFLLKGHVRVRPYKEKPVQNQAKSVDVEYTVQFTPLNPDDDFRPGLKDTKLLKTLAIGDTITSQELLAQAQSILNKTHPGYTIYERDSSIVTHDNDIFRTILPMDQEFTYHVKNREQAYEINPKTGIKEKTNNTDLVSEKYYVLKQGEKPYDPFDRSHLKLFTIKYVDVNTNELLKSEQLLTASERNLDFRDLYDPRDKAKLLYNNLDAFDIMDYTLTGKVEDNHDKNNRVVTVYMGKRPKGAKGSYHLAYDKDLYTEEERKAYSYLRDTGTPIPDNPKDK

Streptococcus = assay: Group A Streptococcus viability loss, dose response, counter-screen for streptokinase expression inhibitor project, luminescence, BacTiterGlo (AID 1915); format: functional, organism-based;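 also: potency for reduction of bacterial viability or growth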
Beta-galactosidase = Beta-galactosidase (Escherichia coli, UniProt Q8VNN2); assay: beta-galactosidase enzyme inhibitors and activators, dose response, artefact control for CCR6 antagonist project, biochemical, E. coli enzyme, set 3 (AID 504712); format: functional
H9c2 = assay: cells; format: functional, cell-based; conditions: Rattus norvegicus, H9c2, Myocardium;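 also: confirmatory concentration-response retest of ultra-high-throughput screening hits for modulation of myocardial damage; cell death induced by hydrogen peroxide oxidative stress; compound pretreatment for 60 min then peroxide exposure for 2 h; potency is for protecting the cells against peroxide damage rather than for killing them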
[10] = target: Induced myeloid leukemia cell differentiation protein Mcl-1 (Homo sapiens, UniProt Q07820); format: functional
Genome polyprotein = Genome polyprotein (dengue virus type 2, UniProt P29990); assay: Dengue-2 NS5 methyltransferase inhibitors, primary screen, biochemical, confirmation dose response (AID 588689); format: functional
Genome polyprotein, sequence (P29990 2492-3391 limits assumed): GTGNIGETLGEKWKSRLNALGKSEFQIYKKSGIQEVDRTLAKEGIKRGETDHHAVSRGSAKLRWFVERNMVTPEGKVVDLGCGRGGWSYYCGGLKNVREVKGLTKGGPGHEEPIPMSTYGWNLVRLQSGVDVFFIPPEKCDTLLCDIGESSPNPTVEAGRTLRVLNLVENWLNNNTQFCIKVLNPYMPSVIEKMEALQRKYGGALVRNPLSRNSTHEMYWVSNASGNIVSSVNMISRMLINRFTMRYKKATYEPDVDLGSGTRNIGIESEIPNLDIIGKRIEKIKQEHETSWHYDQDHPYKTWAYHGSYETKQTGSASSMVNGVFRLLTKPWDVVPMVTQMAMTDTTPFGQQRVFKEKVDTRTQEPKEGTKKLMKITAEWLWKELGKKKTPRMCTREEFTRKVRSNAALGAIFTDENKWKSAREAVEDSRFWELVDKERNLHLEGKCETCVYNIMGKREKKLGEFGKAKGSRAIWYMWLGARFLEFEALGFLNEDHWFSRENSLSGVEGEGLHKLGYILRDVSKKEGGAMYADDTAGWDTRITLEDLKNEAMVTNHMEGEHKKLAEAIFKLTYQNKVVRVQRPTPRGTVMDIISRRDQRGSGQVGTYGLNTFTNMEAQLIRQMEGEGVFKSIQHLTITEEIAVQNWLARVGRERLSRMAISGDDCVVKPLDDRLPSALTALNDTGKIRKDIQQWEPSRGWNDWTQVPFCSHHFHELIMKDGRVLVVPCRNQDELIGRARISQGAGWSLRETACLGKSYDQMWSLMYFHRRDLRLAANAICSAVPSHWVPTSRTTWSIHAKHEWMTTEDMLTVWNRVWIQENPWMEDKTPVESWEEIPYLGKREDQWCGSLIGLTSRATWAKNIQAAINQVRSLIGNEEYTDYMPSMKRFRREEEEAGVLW

T2 sequence (Q9UBE0 whole entry): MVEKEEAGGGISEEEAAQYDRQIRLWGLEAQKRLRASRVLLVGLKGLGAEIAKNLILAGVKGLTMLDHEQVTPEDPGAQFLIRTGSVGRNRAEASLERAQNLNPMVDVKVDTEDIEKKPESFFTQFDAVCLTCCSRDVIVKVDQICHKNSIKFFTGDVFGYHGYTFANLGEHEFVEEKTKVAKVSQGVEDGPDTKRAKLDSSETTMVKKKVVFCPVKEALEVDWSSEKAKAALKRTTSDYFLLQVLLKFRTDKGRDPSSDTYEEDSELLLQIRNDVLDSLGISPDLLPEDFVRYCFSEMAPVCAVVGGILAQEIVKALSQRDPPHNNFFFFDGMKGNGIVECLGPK
T2 sequence (Q9UBT2 whole entry): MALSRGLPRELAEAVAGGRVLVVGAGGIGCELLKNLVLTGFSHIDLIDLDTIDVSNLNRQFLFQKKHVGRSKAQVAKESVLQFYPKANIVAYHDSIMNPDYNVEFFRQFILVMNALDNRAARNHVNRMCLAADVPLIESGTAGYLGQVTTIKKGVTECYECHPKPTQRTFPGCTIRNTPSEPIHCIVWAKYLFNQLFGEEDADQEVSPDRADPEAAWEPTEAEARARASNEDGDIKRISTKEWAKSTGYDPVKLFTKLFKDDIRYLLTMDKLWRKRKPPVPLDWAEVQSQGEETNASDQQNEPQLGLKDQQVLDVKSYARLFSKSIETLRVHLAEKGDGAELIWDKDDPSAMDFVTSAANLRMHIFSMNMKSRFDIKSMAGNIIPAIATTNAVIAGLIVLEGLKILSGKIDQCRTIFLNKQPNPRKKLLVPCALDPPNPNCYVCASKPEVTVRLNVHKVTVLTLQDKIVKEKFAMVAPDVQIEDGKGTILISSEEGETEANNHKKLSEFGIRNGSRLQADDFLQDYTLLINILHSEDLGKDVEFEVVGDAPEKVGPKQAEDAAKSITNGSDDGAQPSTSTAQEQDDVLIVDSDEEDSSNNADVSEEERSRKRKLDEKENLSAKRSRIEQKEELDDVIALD
G-protein coupled receptor 55, sequence (Q9Y2T6 whole entry): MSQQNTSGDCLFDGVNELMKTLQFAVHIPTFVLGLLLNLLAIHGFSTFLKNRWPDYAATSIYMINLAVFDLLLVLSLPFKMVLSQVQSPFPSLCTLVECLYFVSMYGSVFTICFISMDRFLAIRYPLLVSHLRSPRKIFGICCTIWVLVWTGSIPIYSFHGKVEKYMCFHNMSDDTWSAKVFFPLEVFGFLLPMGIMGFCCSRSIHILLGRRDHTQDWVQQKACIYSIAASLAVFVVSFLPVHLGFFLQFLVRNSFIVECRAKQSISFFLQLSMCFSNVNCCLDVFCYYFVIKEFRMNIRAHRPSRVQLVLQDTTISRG
Induced myeloid leukemia cell differentiation protein Mcl-1, sequence (Q07820 whole entry): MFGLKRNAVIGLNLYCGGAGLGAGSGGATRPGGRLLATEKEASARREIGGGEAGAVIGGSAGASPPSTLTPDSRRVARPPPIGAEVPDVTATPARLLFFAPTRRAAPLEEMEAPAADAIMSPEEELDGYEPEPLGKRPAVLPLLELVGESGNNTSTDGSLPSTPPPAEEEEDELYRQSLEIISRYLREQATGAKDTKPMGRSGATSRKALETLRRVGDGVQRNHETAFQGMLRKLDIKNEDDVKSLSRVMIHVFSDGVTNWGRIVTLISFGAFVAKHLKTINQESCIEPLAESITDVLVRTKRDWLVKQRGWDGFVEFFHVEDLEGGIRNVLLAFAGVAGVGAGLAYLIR
DNA dC->dU-editing enzyme APOBEC-3A, sequence (P31941 whole entry): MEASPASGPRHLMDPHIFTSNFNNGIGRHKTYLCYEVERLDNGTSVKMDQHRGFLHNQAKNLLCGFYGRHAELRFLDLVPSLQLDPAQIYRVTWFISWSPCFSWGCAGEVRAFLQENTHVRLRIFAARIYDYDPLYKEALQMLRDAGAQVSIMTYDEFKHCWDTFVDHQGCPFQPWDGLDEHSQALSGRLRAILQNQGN
DNA dC->dU-editing enzyme APOBEC-3G, sequence (Q9HC16 whole entry): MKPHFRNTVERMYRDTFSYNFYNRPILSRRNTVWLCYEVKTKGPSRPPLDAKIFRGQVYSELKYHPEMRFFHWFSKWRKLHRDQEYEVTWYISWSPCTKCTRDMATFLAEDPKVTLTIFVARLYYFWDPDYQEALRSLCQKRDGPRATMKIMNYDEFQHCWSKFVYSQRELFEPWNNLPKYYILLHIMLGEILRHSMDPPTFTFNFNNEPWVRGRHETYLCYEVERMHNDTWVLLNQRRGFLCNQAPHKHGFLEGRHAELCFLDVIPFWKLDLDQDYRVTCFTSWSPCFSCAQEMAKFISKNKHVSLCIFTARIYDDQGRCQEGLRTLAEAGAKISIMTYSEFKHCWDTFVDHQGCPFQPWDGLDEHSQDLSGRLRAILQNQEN
Beta-galactosidase, sequence (Q8VNN2 whole entry): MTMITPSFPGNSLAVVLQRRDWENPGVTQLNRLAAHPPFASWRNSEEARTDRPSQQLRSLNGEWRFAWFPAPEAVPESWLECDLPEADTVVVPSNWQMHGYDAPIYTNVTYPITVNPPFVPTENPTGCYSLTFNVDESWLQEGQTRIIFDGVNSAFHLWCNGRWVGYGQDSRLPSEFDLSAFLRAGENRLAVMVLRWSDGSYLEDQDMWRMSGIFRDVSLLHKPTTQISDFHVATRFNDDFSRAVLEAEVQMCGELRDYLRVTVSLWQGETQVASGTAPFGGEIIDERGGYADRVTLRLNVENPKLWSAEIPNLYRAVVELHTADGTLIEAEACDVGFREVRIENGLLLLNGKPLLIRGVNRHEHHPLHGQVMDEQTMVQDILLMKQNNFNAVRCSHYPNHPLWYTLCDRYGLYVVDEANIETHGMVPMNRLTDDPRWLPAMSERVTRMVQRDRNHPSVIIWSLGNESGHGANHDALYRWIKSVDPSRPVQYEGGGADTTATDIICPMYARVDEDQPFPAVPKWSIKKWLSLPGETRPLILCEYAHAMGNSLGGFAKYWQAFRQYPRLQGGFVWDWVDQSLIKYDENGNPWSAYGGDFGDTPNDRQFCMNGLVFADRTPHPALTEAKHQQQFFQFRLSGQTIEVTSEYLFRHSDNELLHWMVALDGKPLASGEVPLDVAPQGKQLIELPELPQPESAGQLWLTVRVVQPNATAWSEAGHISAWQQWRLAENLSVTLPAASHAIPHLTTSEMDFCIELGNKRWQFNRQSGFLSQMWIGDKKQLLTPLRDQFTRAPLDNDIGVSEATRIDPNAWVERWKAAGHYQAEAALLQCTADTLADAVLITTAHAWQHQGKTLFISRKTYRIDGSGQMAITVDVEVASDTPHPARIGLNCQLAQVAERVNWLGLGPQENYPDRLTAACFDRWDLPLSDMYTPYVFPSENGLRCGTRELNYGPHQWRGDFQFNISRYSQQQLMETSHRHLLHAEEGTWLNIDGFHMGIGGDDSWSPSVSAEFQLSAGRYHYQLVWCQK

CCN(Cc1ccc(C#CCCO)cc1)CC1CCCN(CCc2cccc(F)c2)C1 (configuration not stated)
EC50 [1]: < 0.1 µM (active)
EC50 [2]: 8.84 µM (active)
EC50 (cells): 0.369 µM (active)

Sc1nc2cc(Br)c[nH]c-2n1
IC50 [3]: > 100 µM (inactive)
IC50 [4]: 2.94 µM (active)

CCOc1ccc(NC(=O)N(C2CCCCCC2)C2CCN(C(C)=O)CC2)cc1
IC50 [5]: > 100 µM (active)

CC(=O)c1cccc(CN2CCCC(CCC(=O)NCc3ccccc3F)C2)c1 (configuration not stated)
EC50 [1]: < 0.1 µM (active)
EC50 [2]: > 60 µM (not active)
EC50 (cells): 0.04 µM (active)

O=C(O)Cc1c(O)nc2ccc(Br)cc2c1-c1ccccc1Cl
IC50 (Aminopeptidase N): 23.1 µM (active)

Cc1ccc(SC[C@H](Cc2ccccc2)N2CC[C@@H](NC(=O)OCc3ccccc3)CCC2=O)cc1
EC50 [6]: 1.42 µM (active)

Cc1ccc(S(=O)(=O)n2ccc(OC(=O)c3cccs3)n2)cc1
IC50 (SUMO-activating enzyme [7]): 3.61 µM (active)
IC50 (SUMO-activating enzyme [8]): 94.8 µM (active)

COc1cccc(C(=O)NC(=S)N2CCN(c3ccc(C(F)(F)F)cc3[N+](=O)[O-])CC2)c1
EC50 [9]: > 150 µM (not active)
EC50 (Streptokinase A): > 150 µM (not active)
EC50 (Streptococcus): > 150 µM (not active)
IC50 (Beta-galactosidase): > 66.6 µM (inactive)

O=C(Nc1nccs1)c1cn(-c2ccccc2)nc1-c1ccccc1
IC50 [5]: > 100 µM (active)

Cc1ccc(-c2nn(C)c(=O)c3ccccc23)cc1CNC(=O)c1ccccc1
IC50 (Aminopeptidase N): 7.39 µM (active)

CC(=O)Nc1ccc(S(=O)(=O)Nc2cccc(-c3csc(C)n3)c2)cc1
IC50 (Aminopeptidase N): 58.2 µM (active)

COc1cccc(Cn2cc(-c3cccc(C(F)(F)F)c3)nn2)c1
EC50 [6]: 9.1 µM (active)

C=CCOc1ccc(/C=N/c2ccc(OC)cc2)c(O)c1
IC50 [5]: > 100 µM (active)
IC50 (H9c2): 9.42 µM (active)

Cc1[nH]n(-c2ncc(-c3ccccc3)s2)c(=O)c1C(c1ccc(Cl)cc1)C(C#N)C#N (configuration not stated)
IC50 (SUMO-activating enzyme [7]): 7.91 µM (active)
IC50 (SUMO-activating enzyme [8]): 28.8 µM (active)
IC50 [10]: 8.69 µM (active)
IC50 (Genome polyprotein): 31.9 µM (active)
